Residues, ends and D or L forms follow the SMILES beside them. *: point of attachment. Palmitoyl = CCCCCCCCCCCCCCCC(=O)*; Myristoyl = CCCCCCCCCCCCCC(=O)*; NHHex = CCCCCCN*
Key:
[1] = system: Nuclear Factor Kappa B subunit 1 (NFKB1); assay: Innate immune response gene expression in HEKa, real time PCR array; format: cell-based, human; conditions: 50 μg/ml, 24 h
Procedure: HEKa cells (Life Technologies) are seeded at 6.0×10^5 cells/well in 6-well plates and incubated in culture medium Epillfe™ with defined Growth Supplement (EDGS, Life Technologies), at 37° C. in a water-saturated atmosphere of 95% air and 5% CO2. After 24 hours of incubation under these conditions, medium is removed and cells are incubated with 50 μg/ml (w/v) of a peptide of the invention (see Table 16) in fresh culture medium keeping two wells where HEKa cells are incubated with medium only (basal conditions) at 37° C. and 5% CO2.
After 24 h of incubation, the cells are lysed directly in the wells following the protocol described on the RNeasy™ Mini kit (Qiagen) according to the manufacturer's protocol. The lysed cells are homogenized and the RNases are inactivated. The genomic DNA is removed from the samples by using gDNA Eliminator spin columns (Qiagen). Then the samples are passed through special RNA binding columns (Qiagen) and, after several microcentrifugation washes to eliminate contaminants and impurities, the purified RNA is eluted with 50 μl of ultrapure water. Quantification and analysis of purity of RNA samples are performed after RNA elution with a biophotometer (Eppendorf). 1 μg of high-quality RNA is retrotranscribed with iScript™ advanced (BioRad) in a final volume of 20 μl·Complete reaction mix is incubated in a thermal cycler (Eppendorf) at 42° C. for 30 minutes, and the reactions are stopped at 85° C. for 5 minutes. Complementary DNA is amplified by qPCR in a real-time PCR thermocycler (BioRad) using SYBR®Green supermix (BioRad) and a customized plate for use with SYBR®Green (BioRad). SYBR®Green binds to double-stranded DNA molecules and emits fluorescence which is quantified and is proportional to the amount of the product in the PCR reaction. Cycling conditions in BioRad CFX96™ instrument are 95° C. for 3 minutes, followed by 40 cycles of denaturing at 95° C. for 5 seconds, annealing and elongation at 60° C. for 30 seconds. GAPDH (Glyceraldehyde 3-phosphate dehydrogenase), TBP (TATA box binding protein) and HRPT1 (hypoxanthine phosphoribosyltransferase 1) are used as endogenous controls. Fold change relative to the expression of the sample genes and reference genes is calculated using normalized expression (ΔΔ(Ct)) method with default threshold values using CFX Manager Software (BioRad).
Genes analyzed are Chemokine (C-C motif) Ligand 5 (CCL5), Myeloid Differentiation primary response gene 88 (MyD88), Nuclear Factor Kappa B subunit 1 (NFKB1) and interferon Regulatory Factor 3 (IRF3).

[2] = system: Staphylococcus epidermidis; assay: Adherence of Staphylococcus epidermidis in keratinocytes (HaCaT) in competition with S. aureus bioparticles; format: cell-based; conditions: 50 μg/ml, 24 h, basal = 0
Procedure: After that treatment, cells are washed with phosphate-buffered saline (PBS, Sigma) and are then incubated with a solution of Staphylococcus epidermidis (ATCC®12228™, Culture Collections) treated with green-fluorescence calcein AM (Life technologic) and Alexa Fluor 594™ Bioparticles Staphylococcus aureus (ThermoFisher) in PBS for 30 minutes at 37° C. and protected from light. At the end of the incubation period, cells are washed with PBS and fixed in 4% (v/v) paraformaldehyde (PFA, Sigma) for 30 minutes. After rinsing with PBS, the nuclei are stained with Hoechst 33342, trihydrochloride trihydrate (ThermoFisher) in PBS for 10 minutes before analysis.
Cellular imaging is performed by fluorescence microscopy using the Operetta® High Content Imaging System (PerkinElmer). From each fluorescence image, Staphylococcus epidermidis is quantified as a number of spots and normalized against the number of keratinocyte nuclei and the total bacteria number (understood as the addition of detected S. epidermidis spots and S. aureus bioparticles). Each value obtained is normalized respect to basal conditions (non-treated keratinocytes). An image is taken in three different fields per well. 12 representative images from each condition are analyzed with Harmony software (PerkinElmer).
The normalized percentage of Staphylococcus epidermidis respect to basal conditions in treated keratinocytes is represented in Table 17.

[3] = system: Reconstructed Human Epidermis (RHE); assay: Lipidomic profile (UPLC-MS) of in vitro epidermal model; format: cell-based; conditions: 50 μg/ml, 24 hours, vs basal conditions
Procedure: The SkinEthic human tissue models (EpiSkin™) are removed from their agarose-nutrient solution in the multiwell plate immediately after arrival and are placed in a 6-well plate in which each well has previously been filled with SkinEthic Growth Medium (EpiSkin™). After overnight incubation at 37° C., 5% CO2, Reconstructed Human Epidermis (RHE) are treated with 50 μg/ml of peptides Ac-Glu-Glu-Met-Gln-Arg-Arg-NH2 (PEP-1), Ac-Glu-Glu-Met-Gln-Arg-Arg-Ala-NH2 (PEP-2) or Ac-Glu-Glu-Met-Gln-Arg-Arg-Ala-Asp-NH2 (PEP-3) or medium (basal conditions) for 24 hours at 37° C. and 5% CO2. After the 24 hours treatment, RHE are frozen and stored at −20° C. Each treatment is applied to five RHE per condition.
Epidermal membrane model samples are thawed and removed from the inserts using a scalpel and transferred to homogenization tubes. Samples are mixed with sodium chloride (50 mM) and chloroform/methanol (2/1) (v:v) and homogenized. The extraction solvent is spiked with metabolites not detected in unspiked human serum extracts. After homogenizing the samples, extracts are incubated for 1 hour at −20° C. and centrifuged at 18,000×g for 15 minutes. The organic phase is then collected and dried under vacuum. Dried extracts are finally reconstituted in acetonitrile/isopropanol (1/1) (v:v), centrifuged at 18,000×g for 5 minutes and transferred to vials for UPLCs-MS analysis.
All data are processed using the TargetLynx™ application manager for MassLynx™ 4.1 software (Waters Corp., Milford, USA). A set of predefined retention time, mass-to-charge ratio pairs, Rt-m/z, corresponding to metabolites included in the analysis are fed into the program. Associated extracted ion chromatograms (mass tolerance window=0.05 Da) are then peak-detected and noise-reduced in both the LC and MS domains such that only true metabolite related features are processed by the software. A list of chromatographic peak areas is then generated for each sample injection and value respect to basal conditions is calculated.
Average of five values obtained for each peptide in relation to those obtained for basal conditions (without peptide in the medium) are shown in Table 11.

Claudin 1 (CLDN1) = assay: Tight junction gene expression in HEKa, real time PCR array; conditions: 50 μg/ml, 24 hours
Procedure: HEKa cells (Life Technologies) are seeded at 6.0×10^5 cells/well in 6-well plates and incubated in culture medium Epilife™ with defined Growth Supplement (EDGS, Life Technologies) at 37° C. in a water-saturated atmosphere of 95% air and 5% CO2. After 24 hours of incubation under these conditions, medium is removed and cells are incubated with 50 μg/ml of a peptide of the invention (see Table 12) in fresh culture medium, except for two wells where HEKa cells are incubated with medium only (basal conditions), at 37° C. and 5% CO2.
After 24 hours of incubation, the cells are lysed directly in the wells following the protocol described on the RNeasy™ Mini kit (Qiagen) according to the manufacturer's protocol. The lysed cells are homogenized and the Rnases are inactivated. The genomic DNA is removed from the samples by using gDNA Eliminator spin columns (Qiagen). […] Quantification and analysis of purity of RNA samples are performed after RNA elution with a biophotometer (Eppendorf). […] SYBR Green binds to double-stranded DNA molecules and emits fluorescence which is quantified and is proportional to the amount of the product in the PCR reaction. […] Fold change relative to the expression of the sample genes and reference genes is calculated using normalized expression (ΔΔ(Ct)) method with default threshold values using CFX Manager Software (BioRad).

Molecule	NFKB1 fold induction respect to basal conditions [1]	S. epidermidis (%), normalized percentage respect to basal conditions [2]	other results
Ac-EEMQRRAD-NH2 [PEP-3, Ac-Glu-Glu-Met-Gln-Arg-Arg-Ala-Asp-NH2]	2.04	11.46%	Cer_AP48 N-(alpha-hydroxyacyl) phytosphingosines [3]: 1.15 fold change; Cer_NP48 N-acyl phytosphingosines [3]: 1.19 fold change; Cer_NP49 N-acyl phytosphingosines [3]: 1.14 fold change; Cer_NP50 N-acyl phytosphingosines [3]: 1.30 fold change; Cer_NP51 N-acyl phytosphingosines [3]: 1.24 fold change; Cer_NS50 N-acyl sphingosines [3]: 1.14 fold change; Cer_NS51 N-acyl sphingosines [3]: 1.10 fold change; Cer_NS52 N-acyl sphingosines [3]: 1.30 fold change; Cer_NdS47 N-acyl dihydrosphingosines [3]: 1.20 fold change; Cer_NdS48 N-acyl dihydrosphingosines [3]: 1.34 fold change; Cer_NdS49 N-acyl dihydrosphingosines [3]: 1.43 fold change; Cer_NdS50 N-acyl dihydrosphingosines [3]: 1.68 fold change
Ac-EEMQRKAD-NH2 [PEP-14, Ac-Glu-Glu-Met-Gln-Arg-Lys-Ala-Asp-NH2]	2.59	22.18%	CLDN1 fold induction respect to basal conditions (Claudin 1 (CLDN1)): 2.59
CCCCCCCCCCCCCCCC(=O)N[C@@H](CCC(=O)O)C(=O)N[C@@H](CCC(=O)O)C(=O)N[C@@H](CCSC)C(=O)N[C@@H](CCC(N)=O)C(=O)N[C@@H](CCCNC(=N)N)C(=O)N[C@@H](CCCNC(=N)N)C(=O)N[C@@H](C)C(=O)N[C@@H](CC(N)=O)C(=O)O [PEP-33, Palm-Glu-Glu-Met-Gln-Arg-Arg-Ala-Asn-OH] (Palmitoyl-EEMQRRAN-OH)	2.63	58.74%	–
Ac-EDMQRR-NH2 [PEP-49, Ac-Glu-Asp-Met-Gln-Arg-Arg-NH2]	1.55	5.86%	–
Ac-EEMQRK-NH2 [PEP-45, Ac-Glu-Glu-Met-Gln-Arg-Lys-NH2]	2.21	5.48%	–
Ac-EEMQRRT-NH2 [PEP-41, Ac-Glu-Glu-Met-Gln-Arg-Arg-Thr-NH2]	2.71	35.69%	–
Ac-EEIERR-NH2 [PEP-55, Ac-Glu-Glu-Ile-Glu-Arg-Arg-NH2]	3.39	2.41%	–
Ac-DEMQRRAD-NH2 [PEP-8, Ac-Asp-Glu-Met-Gln-Arg-Arg-Ala-Asp-NH2]	2.04	20.45%	–
Ac-EEMQRRKD-NH2 [PEP-24, Ac-Glu-Glu-Met-Gln-Arg-Arg-Lys-Asp-NH2]	2.46	10.41%	–
H-EEMQRRAE-NH2 [PEP-26, H-Glu-Glu-Met-Gln-Arg-Arg-Ala-Glu-NH2]	2.55	18.10%	–
Ac-NEMQRRA-NH2 [PEP-43, Ac-Asn-Glu-Met-Gln-Arg-Arg-Ala-NH2]	2.56	30.17%	–
H-EEMQRR-NH2 [PEP-56, H-Glu-Glu-Met-Gln-Arg-Arg-NH2]	1.90	15.75%	–
Ac-EEMQRRAQ-NH2 [PEP-19, Ac-Glu-Glu-Met-Gln-Arg-Arg-Ala-Gln-NH2]	2.73	81.69%	–
Ac-EEMQRRG-NH2 [PEP-38, Ac-Glu-Glu-Met-Gln-Arg-Arg-Gly-NH2]	2.40	49.00%	–
Ac-EEMQRR-NH2 [PEP-1, Ac-Glu-Glu-Met-Gln-Arg-Arg-NH2]	2.59	13.63. %	Cer_AP48 N-(alpha-hydroxyacyl) phytosphingosines [3]: 1.21 fold change; Cer_NP48 N-acyl phytosphingosines [3]: 1.21 fold change; Cer_NP49 N-acyl phytosphingosines [3]: 1.17 fold change; Cer_NP50 N-acyl phytosphingosines [3]: 1.18 fold change; Cer_NP51 N-acyl phytosphingosines [3]: 1.44 fold change; Cer_NS50 N-acyl sphingosines [3]: 1.20 fold change; Cer_NS51 N-acyl sphingosines [3]: 1.14 fold change; Cer_NS52 N-acyl sphingosines [3]: 1.35 fold change; Cer_NdS47 N-acyl dihydrosphingosines [3]: 1.14 fold change; Cer_NdS48 N-acyl dihydrosphingosines [3]: 1.21 fold change; Cer_NdS49 N-acyl dihydrosphingosines [3]: 1.38 fold change; Cer_NdS50 N-acyl dihydrosphingosines [3]: 1.42 fold change
Ac-QEMQRRAD-NH2 [PEP-9, Ac-Gln-Glu-Met-Gln-Arg-Arg-Ala-Asp-NH2]	2.66	21.36%	–
Ac-DEMQRR-NH2 [PEP-51, Ac-Asp-Glu-Met-Gln-Arg-Arg-NH2]	2.41	65.15%	–
Ac-EEMQRRS-NH2 [PEP-37, Ac-Glu-Glu-Met-Gln-Arg-Arg-Ser-NH2]	2.88	7.49%	–
Ac-EEMQRRAN-NH2 [PEP-18, Ac-Glu-Glu-Met-Gln-Arg-Arg-Ala-Asn-NH2]	2.69	26.35%	–
Ac-EEMQKR-NH2 [PEP-46, Ac-Glu-Glu-Met-Gln-Lys-Arg-NH2]	2.03	3.97%	–
Ac-EEMQRRED-NH2 [PEP-23, Ac-Glu-Glu-Met-Gln-Arg-Arg-Glu-Asp-NH2]	2.58	20.10%	CLDN1 fold induction respect to basal conditions (Claudin 1 (CLDN1)): 2.58
Ac-EEMQRHAD-NH2 [PEP-20, Ac-Glu-Glu-Met-Gln-Arg-His-Ala-Asp-NH2]	2.71	16.66%	–
CCCCCCCCCCCCCC(=O)N[C@@H](CCC(=O)O)C(=O)N[C@@H](CCC(=O)O)C(=O)N[C@@H](CCSC)C(=O)N[C@@H](CCC(N)=O)C(=O)N[C@@H](CCCNC(=N)N)C(=O)N[C@@H](CCCNC(=N)N)C(=O)N[C@@H](C)C(=O)N[C@@H](CCC(=O)O)C(N)=O [PEP-29, Myr-Glu-Glu-Met-Gln-Arg-Arg-Ala-Glu-NH2] (Myristoyl-EEMQRRAE-NH2)	2.72	33.02%	–
CCCCCCNC(=O)[C@H](CC(=O)O)NC(=O)[C@H](C)NC(=O)[C@H](CCCNC(=N)N)NC(=O)[C@H](CCCNC(=N)N)NC(=O)[C@H](CCC(N)=O)NC(=O)[C@H](CCSC)NC(=O)[C@H](CCC(=O)O)NC(=O)[C@@H](N)CCC(=O)O [PEP-36, H-Glu-Glu-Met-Gln-Arg-Arg-Ala-Asp-NHC6H13] (H-EEMQRRAD-NHHex)	2.53	29.93%	–
CCCCCCCCCCCCCC(=O)N[C@@H](CCC(=O)O)C(=O)N[C@@H](CCC(=O)O)C(=O)N[C@@H](CCSC)C(=O)N[C@@H](CCC(N)=O)C(=O)N[C@@H](CCCNC(=N)N)C(=O)N[C@@H](CCCCN)C(N)=O [PEP-60, Myr-Glu-Glu-Met-Gln-Arg-Lys-NH2] (Myristoyl-EEMQRK-NH2)	1.26	24.84%	–
Ac-EEMQRRPD-NH2 [PEP-22, Ac-Glu-Glu-Met-Gln-Arg-Arg-Pro-Asp-NH2]	2.69	81.90%	–

From patent publication US20200002377A1, “COMPOUNDS USEFUL FOR THE TREATMENT AND/OR CARE OF THE SKIN, HAIR, NAILS AND/OR MUCOUS MEMBRANES” (LUBRIZOL ADVANCED MATERIALS, INC., priority 2016, published 2020)
